# Measured values reported in ChEMBL document CHEMBL4145553, “Design, synthesis, and biological evaluation of novel amide and hydrazide based thioether analogs targeting Histone deacteylase (HDAC) enzymes” (Eur J Med Chem, 2018).
# Tests used:
# Assay type in all cases: functional
# [1] = tested on: COLO 205; test: Growth inhibition of human COLO205 cells assessed as cell growth at 10^-8 M incubated for 48 hrs by sulforhodamine B assay relative to control; settings: COLO 205, 48 h, read-out: Activity
# [2] = tested on: SNB-75; test: Growth inhibition of human SNB75 cells assessed as cell growth at 10^-8 M incubated for 48 hrs by sulforhodamine B assay relative to control; settings: SNB-75, 48 h, read-out: Activity
# [3] = tested on: LOX IMVI; test: Growth inhibition of human LOXIMVI cells assessed as cell growth at 10^-8 M incubated for 48 hrs by sulforhodamine B assay relative to control; settings: read-out: Activity
# [4] = tested on: OVCAR-5; test: Growth inhibition of human OVCAR5 cells assessed as cell growth at 10^-8 M incubated for 48 hrs by sulforhodamine B assay relative to control; settings: OVCAR-5, 48 h, read-out: Activity
# [5] = tested on: RPMI-8226; test: Growth inhibition of human RPMI8226 cells assessed as cell growth at 10^-7 M incubated for 48 hrs by sulforhodamine B assay relative to control; settings: RPMI-8226, 48 h, read-out: Activity
# [6] = tested on: SR; test: Growth inhibition of human SR cells assessed as cell growth at 10^-7 M incubated for 48 hrs by sulforhodamine B assay relative to control; settings: read-out: Activity
# [7] = tested on: NCI-H522; test: Growth inhibition of human NCI-H522 cells assessed as cell growth at 10^-7 M incubated for 48 hrs by sulforhodamine B assay relative to control; settings: NCI-H522, 48 h, read-out: Activity
# [8] = tested on: HT-29; test: Growth inhibition of human HT-29 cells assessed as cell growth at 10^-7 M incubated for 48 hrs by sulforhodamine B assay relative to control; settings: HT-29, 48 h, read-out: Activity
# [9] = tested on: K562; test: Growth inhibition of human K562 cells assessed as cell growth at 10^-6 M incubated for 48 hrs by sulforhodamine B assay relative to control; settings: K562, 48 h, read-out: Activity
# [10] = tested on: SR; test: Growth inhibition of human SR cells assessed as cell growth at 10^-6 M incubated for 48 hrs by sulforhodamine B assay relative to control; settings: read-out: Activity
# [11] = tested on: HOP-62; test: Growth inhibition of human HOP62 cells assessed as cell growth at 10^-6 M incubated for 48 hrs by sulforhodamine B assay relative to control; settings: HOP-62, 48 h, read-out: Activity
# [12] = tested on: NCI-H322M; test: Growth inhibition of human NCI-H322M cells assessed as cell growth at 10^-6 M incubated for 48 hrs by sulforhodamine B assay relative to control; settings: read-out: Activity
# [13] = tested on: KM12; test: Growth inhibition of human KM12 cells assessed as cell growth at 10^-6 M incubated for 48 hrs by sulforhodamine B assay relative to control; settings: KM12, 48 h, read-out: Activity
# [14] = tested on: SNB-19; test: Growth inhibition of human SNB19 cells assessed as cell growth at 10^-6 M incubated for 48 hrs by sulforhodamine B assay relative to control; settings: SNB-19, 48 h, read-out: Activity
# [15] = tested on: UACC-257; test: Growth inhibition of human UACC257 cells assessed as cell growth at 10^-6 M incubated for 48 hrs by sulforhodamine B assay relative to control; settings: UACC-257, 48 h, read-out: Activity
# [16] = tested on: UACC-62; test: Growth inhibition of human UACC62 cells assessed as cell growth at 10^-6 M incubated for 48 hrs by sulforhodamine B assay relative to control; settings: UACC-62, 48 h, read-out: Activity
# [17] = tested on: IGROV-1; test: Growth inhibition of human IGROV1 cells assessed as cell growth at 10^-6 M incubated for 48 hrs by sulforhodamine B assay relative to control; settings: IGROV-1, 48 h, read-out: Activity
# [18] = tested on: MCF7; test: Growth inhibition of human MCF7 cells assessed as cell growth at 10^-6 M incubated for 48 hrs by sulforhodamine B assay relative to control; settings: MCF7, 48 h, read-out: Activity
# [19] = tested on: HL-60(TB); test: Growth inhibition of human HL-60(TB) cells assessed as cell growth at 10^-5 M incubated for 48 hrs by sulforhodamine B assay relative to control; settings: HL-60, 48 h, read-out: Activity
# [20] = tested on: HCT-116; test: Growth inhibition of human HCT116 cells assessed as cell growth at 10^-5 M incubated for 48 hrs by sulforhodamine B assay relative to control; settings: HCT-116, 48 h, read-out: Activity
# [21] = tested on: 786-0; test: Growth inhibition of human 786-0 cells assessed as cell growth at 10^-5 M incubated for 48 hrs by sulforhodamine B assay relative to control; settings: 786-0, 48 h, read-out: Activity
# [22] = tested on: A498; test: Growth inhibition of human A498 cells assessed as cell growth at 10^-5 M incubated for 48 hrs by sulforhodamine B assay relative to control; settings: A498, 48 h, read-out: Activity
# [23] = tested on: MCF7; test: Growth inhibition of human MCF7 cells assessed as cell growth at 10^-5 M incubated for 48 hrs by sulforhodamine B assay relative to control; settings: MCF7, 48 h, read-out: Activity
# [24] = tested on: A549; test: Growth inhibition of human A549/ATCC cells assessed as cell growth at 10^-4 M incubated for 48 hrs by sulforhodamine B assay relative to control; settings: A549, 48 h, read-out: Activity
# [25] = tested on: SW-620; test: Growth inhibition of human SW620 cells assessed as cell growth at 10^-4 M incubated for 48 hrs by sulforhodamine B assay relative to control; settings: SW-620, 48 h, read-out: Activity
# [26] = tested on: 786-0; test: Growth inhibition of human 786-0 cells assessed as cell growth at 10^-4 M incubated for 48 hrs by sulforhodamine B assay relative to control; settings: 786-0, 48 h, read-out: Activity
# [27] = tested on: A549; test: Growth inhibition of human A549/ATCC cells incubated for 48 hrs by sulforhodamine B assay; settings: A549, 48 h
# [28] = tested on: SK-MEL-5; test: Growth inhibition of human SK-MEL-5 cells incubated for 48 hrs by sulforhodamine B assay; settings: SK-MEL-5, 48 h
# [29] = tested on: NCI/ADR-RES; test: Growth inhibition of human NCI/ADR-RES cells incubated for 48 hrs by sulforhodamine B assay
# [30] = tested on: HL-60; test: Antiproliferative activity against human HL60 cells after 24 hrs by MTT assay
# [31] = tested on: HL-60; test: Induction of apoptosis in human HL60 cells assessed as early apoptotic cells by propidium iodide/Annexin V staining based flow cytometry (reference value: 0.37%)
# [32] = tested on: MDA-MB-435; test: Cell cycle arrest in human MDA-MB-435 cells assessed as accumulation at S-phase by propidium iodide staining based flow cytometry (reference value: 26.46%)
# [33] = read-out: LC50 (the source's name)
# [34] = read-out: pLC50 (the source's name) (converted)
compound,measurement,setting,value
CCS/C(Nc1ccccc1)=C(\C#N)C(=O)Nc1ccc(OC)cc1,growth at 0.01 µM,[1],111%
same,growth at 0.01 µM,[2],94%
same,growth at 0.01 µM,[3],100%
same,growth at 0.01 µM,[4],104%
same,growth at 0.1 µM,[5],89%
same,growth at 0.1 µM,[6],85%
same,growth at 0.1 µM,[7],94%
same,growth at 0.1 µM,[8],105%
same,growth at 1 µM,[9],29%
same,growth at 1 µM,[10],57%
same,growth at 1 µM,[11],78%
same,growth at 1 µM,[12],89%
same,growth at 1 µM,[13],68%
same,growth at 1 µM,[14],84%
same,growth at 1 µM,[15],93%
same,growth at 1 µM,[16],71%
same,growth at 1 µM,[17],79%
same,growth at 1 µM,[18],77%
same,growth at 10 µM,[19],7%
same,growth at 10 µM,[20],3%
same,growth at 10 µM,[21],30%
same,growth at 10 µM,[22],9%
same,growth at 10 µM,[23],15%
same,growth at 100 µM,[24],15%
same,growth at 100 µM,[25],14%
same,growth at 100 µM,[26],6%
same,GI50,[27]; read-out: GI50,5.91 µM
same,CC50,[27]; [33],> 100 µM
same,TGI,[27]; read-out: TGI,> 100 µM
same,GI50,[27]; read-out: pGI50 (converted),5.89 µM
same,CC50,[27]; [34],> 100 µM
same,TGI,[27]; read-out: pTGI,> 100 µM
same,GI50,[28]; read-out: GI50,2.2 µM
same,CC50,[28]; [33],68.2 µM
same,TGI,[28]; read-out: TGI,8.19 µM
same,GI50,[28]; read-out: pGI50 (converted),2.19 µM
same,CC50,[28]; [34],67.6 µM
same,TGI,[28]; read-out: pTGI (converted),8.13 µM
same,GI50,[29]; read-out: GI50,2.62 µM
same,CC50,[29]; [33],> 100 µM
same,TGI,[29]; read-out: TGI,> 100 µM
same,GI50,[29]; read-out: pGI50 (converted),2.63 µM
same,CC50,[29]; [34],> 100 µM
same,TGI,[29]; read-out: pTGI,> 100 µM
same,Activity,[30],Dose-dependent effect
same,GI50,"[30]; Homo sapiens, HL-60, 24 h",2.87 µM
same,Activity,[31],4.89%
same,Activity,[32],19.26%
